In patent publication EP3478687B1 (Daewoong Pharmaceutical Co., Ltd., priority 2016, dated 2018):
Where a name gives a salt, the structure may show the parent alone.

Experiments:
[1] = biological target: T1, Recombinant purified human JAK3 (Homo sapiens, UniProt P52333); assay: JAK3 kinase inhibitory activity, ADP-Glo kinase assay (Promega V9441); assay type: biochemical; details: ATP 5 uM, 4 ng JAK3 per reaction, 1 hour 30 °C, chemiluminescence
T1 construct: purchased Promega V9441
T1 sequence (P52333 1-1124): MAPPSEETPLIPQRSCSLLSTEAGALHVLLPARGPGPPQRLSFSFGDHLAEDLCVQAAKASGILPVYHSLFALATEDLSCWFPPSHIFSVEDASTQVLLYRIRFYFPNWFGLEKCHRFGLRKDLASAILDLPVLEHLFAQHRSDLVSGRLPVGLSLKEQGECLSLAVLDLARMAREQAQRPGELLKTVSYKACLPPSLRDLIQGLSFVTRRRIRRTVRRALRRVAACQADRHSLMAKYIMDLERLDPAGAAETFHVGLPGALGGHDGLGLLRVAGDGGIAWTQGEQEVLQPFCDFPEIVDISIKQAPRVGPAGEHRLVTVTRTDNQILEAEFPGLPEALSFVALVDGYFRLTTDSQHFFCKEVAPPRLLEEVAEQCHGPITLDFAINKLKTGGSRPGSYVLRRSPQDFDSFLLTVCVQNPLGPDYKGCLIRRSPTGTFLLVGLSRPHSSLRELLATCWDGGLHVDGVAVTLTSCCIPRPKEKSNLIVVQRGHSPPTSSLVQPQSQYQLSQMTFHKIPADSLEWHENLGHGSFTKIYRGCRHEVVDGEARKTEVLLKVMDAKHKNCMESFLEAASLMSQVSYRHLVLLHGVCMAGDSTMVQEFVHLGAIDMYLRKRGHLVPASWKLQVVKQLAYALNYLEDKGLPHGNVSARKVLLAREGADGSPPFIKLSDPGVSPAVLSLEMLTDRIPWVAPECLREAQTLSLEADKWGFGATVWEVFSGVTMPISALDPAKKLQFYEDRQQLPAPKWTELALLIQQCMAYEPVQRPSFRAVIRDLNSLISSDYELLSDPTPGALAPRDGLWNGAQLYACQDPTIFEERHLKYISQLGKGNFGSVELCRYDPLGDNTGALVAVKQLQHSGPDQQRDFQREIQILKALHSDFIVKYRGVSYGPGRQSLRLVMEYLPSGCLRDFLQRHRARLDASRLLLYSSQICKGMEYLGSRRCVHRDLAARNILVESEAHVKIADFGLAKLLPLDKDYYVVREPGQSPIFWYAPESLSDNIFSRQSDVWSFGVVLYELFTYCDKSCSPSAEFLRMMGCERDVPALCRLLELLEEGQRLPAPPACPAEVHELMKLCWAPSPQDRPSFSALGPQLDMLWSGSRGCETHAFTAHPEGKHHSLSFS
Procedure, shortened: (§1)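 Recombinant human kinases in Tris pH 7.5 buffer with MgCl2, BSA and DTT (MnCl2 added for BTK), 4 ng JAK3 or 8 ng BTK per reaction. Poly(Glu4,Tyr1) 0.2 µg/µL with 5 µM (JAK3) or 10 µM (BTK) ATP, 1% DMSO, 1 h at 30 °C. ADP-Glo luminescence used to derive IC50.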

[2] = biological target: T2, Recombinant purified human BTK (Homo sapiens, UniProt Q06187); assay: BTK kinase inhibitory activity, ADP-Glo kinase assay (Promega V9071); assay type: biochemical; details: ATP 10 uM, 8 ng BTK per reaction, 1 hour 30 °C, chemiluminescence
T2 construct: purchased Promega V9071
T2 sequence (Q06187 whole entry): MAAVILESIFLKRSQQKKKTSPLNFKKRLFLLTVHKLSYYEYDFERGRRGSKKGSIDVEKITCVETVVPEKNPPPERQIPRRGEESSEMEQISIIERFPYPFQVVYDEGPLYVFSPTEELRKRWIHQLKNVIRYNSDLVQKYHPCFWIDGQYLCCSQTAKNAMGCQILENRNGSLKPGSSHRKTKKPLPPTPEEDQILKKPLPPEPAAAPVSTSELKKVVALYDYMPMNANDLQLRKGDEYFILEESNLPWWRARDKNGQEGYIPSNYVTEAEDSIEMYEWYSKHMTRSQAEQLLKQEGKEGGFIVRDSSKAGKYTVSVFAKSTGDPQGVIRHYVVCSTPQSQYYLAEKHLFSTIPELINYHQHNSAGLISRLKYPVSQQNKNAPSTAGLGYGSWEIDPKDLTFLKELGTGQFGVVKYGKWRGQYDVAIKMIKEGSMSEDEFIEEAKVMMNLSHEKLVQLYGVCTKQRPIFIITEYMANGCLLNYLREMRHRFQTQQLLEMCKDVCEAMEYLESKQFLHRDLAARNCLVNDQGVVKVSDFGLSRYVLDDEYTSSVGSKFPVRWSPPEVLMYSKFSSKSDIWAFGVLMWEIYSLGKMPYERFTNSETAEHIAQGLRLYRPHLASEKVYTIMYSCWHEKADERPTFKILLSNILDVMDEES
Procedure, shortened: as §1

Question: C=CC(=O)N1CCC[C@@H](N(C)c2nc(Nc3cnn(CC)c3)nc3[nH]nc(SC)c23)C1 [Example 131, (R)-1-(3-((6-((1-ethyl-1H-pyrazol-4-yl)amino)-3-(methylthio)-1H-pyrazolo [3,4-d]pyrimidin-4-yl)(methyl)amino)piperidin-1-yl)prop-2-en-1-one] was tested. Which IC50 [1] did it give?
Answer: 24.5 nM

Question: And the IC50 [2]?
Answer: 1.6 nM

Question: How did the IC50 [1] turn out when C=CC(=O)N1CC[C@@H](C)[C@@H](Nc2nc(Nc3cnn(C4CC4)c3)nc3[nH]nc(Cl)c23)C1 [Example 94, 1-((3R,4R)-3-((3-chloro-6-((1-cyclopropyl-1H-pyrazol-4-yl)amino)-1H-pyrazolo[3,4-d]pyrimidin-4-yl)amino)-4-methylpiperidin-1-yl)prop-2-en-1-one] was run?
Answer: 4.5 nM

Question: What about the IC50 [2] of the same molecule?
Answer: 1.7 nM

Question: Which IC50 [1] does the source give for C=CC(=O)N1CCC[C@@H](Nc2nc(Nc3cnn(CC(F)F)c3)nc3[nH]nc(Cl)c23)C1 [Example 90, (R)-1-(3-((3-chloro-6-((1-(2,2-difluoroethyl)-1H-pyrazol-4-yl)amino)-1H-pyrazolo [3,4-d]pyrimidin-4-yl)amino)piperidin-1-yl)prop-2-en-1-one hydrochloride] here?
Answer: 0.5 nM

Question: What about the IC50 [2] of the same molecule?
Answer: 1 nM

Question: With C=CC(=O)N1CC[C@@H](C)[C@@H](Nc2nc(Nc3cnn(CCN4CCOCC4)c3)nc3[nH]nc(Cl)c23)C1 [Example 123, 1-((3R,4R)-3-((3-chloro-6-((1-(2-morpholinoethyl)-1H-pyrazol-4-yl)amino)-1H-pyrazolo[3,4-d]pyrimidin-4-yl)amino)-4-methylpiperidin-1-yl)prop-2-en-1-one] as the molecule, how does the IC50 [1] read?
Answer: 7.9 nM

Question: What about the IC50 [2] of the same molecule?
Answer: 5.8 nM

Question: How did the IC50 [1] turn out when C=CC(=O)N1CC[C@@H](C)[C@@H](Nc2nc(Nc3cnn(Cc4cccc(OC)c4)c3)nc3[nH]nc(Cl)c23)C1 [Example 125, 1-((3R,4R)-3-((3-chloro-6-((1-(3-methoaybenzyl)-1H-pyrazol-4-yl)amino)-1H-pyrazolo[3,4-d]pyrimidin-4-yl)amino)-4-methylpiperidin-1-yl)prop-2-en-1-one] was run?
Answer: 20.4 nM

Question: And the IC50 [2]?
Answer: 8.2 nM

Question: With CC(C)/C=C(\C#N)C(=O)N1CCC[C@@H](Nc2nc(Nc3cnn(C4CC4)c3)nc3[nH]nc(Cl)c23)C1 [Example 162, (R,E)-2-(3-((3-chloro-6-((1-cyclopropyl-1H-pyrazol-4-yl)amino)-1H-pyrazolo[3,4-d]pyrimidin-4-yl)amino)piperidine-1-carbonyl)-4-methylpent-2-enenitrile] as the molecule, how does the IC50 [1] read?
Answer: 3 nM

Question: And the IC50 [2]?
Answer: 4.8 nM

Question: How did the IC50 [1] turn out when CCn1cc(Nc2nc(N[C@@H]3CCCN(C(=O)/C(C#N)=C/C(C)C)C3)c3c(Cl)c[nH]c3n2)cn1 [Example 178, (R,E)-2-(3-((5-chloro-2-((1-ethyl-1H-pyrazol-4-yl)amino)-7H-pyrrolo[2,3-d]pyrimidin-4-yl)amino)piperidine-1-carbonyl)-4-methylpent-2-enenitrile] was run?
Answer: 0.5 nM

Question: What about the IC50 [2] of the same molecule?
Answer: 0.9 nM

Question: With C=CC(=O)N1CCC[C@@H](Nc2nc(Nc3ccc(C(=O)N4CCOCC4)cc3)nc3[nH]ccc23)C1 [Example 8, (R)-1-(3-(2-(4-(morpholine-4-carbonyl)phenylamino)-7H-pyrrolo[2,3-d]pyrimidin-4-ylamino)piperidin-1-yl)prop-2-en-1-one] as the molecule, how does the IC50 [1] read?
Answer: 1.3 nM

Question: What about the IC50 [2] of the same molecule?
Answer: 14.3 nM

Question: Which results are given for C=CC(=O)N1CCC[C@@H](Sc2nc(Nc3cnn(CC(F)(F)F)c3)nc3[nH]nc(Cl)c23)C1 [Example 114, (R)-1-(3-((3-chloro-6-((1-(2,2,2-trifluoroethyl)-1H-pyrazol-4-yl)amino)-1H-pyrazolo [3,4-d]pyrimidin-4-yl)thio)piperidin-1-yl)prop-2-en-1-one]?
Answer: IC50 [1]: 0.9 nM; IC50 [2]: 2.3 nM

Question: Which IC50 [1] does the source give for C=CC(=O)N1CC[C@@H](C)[C@@H](Nc2nc(Nc3cnn(CC(F)F)c3)nc3[nH]nc(SC)c23)C1 [Example 133, 1-((3R,4R)-3-((6-((1-(2,2-difluoroethyl)-1H-pyrazol-4-yl)amino)-3-(methylthio)-1H-pyrazolo [3,4-d]pyrimidin-4-yl)amino)-4-methylpiperidin-1-yl)prop-2-en-1-one] here?
Answer: 16 nM

Question: What about the IC50 [2] of the same molecule?
Answer: 1.6 nM

Question: For C=CC(=O)N1CCC[C@@H](Nc2nc(Nc3cnn(CC(F)F)c3)nc3[nH]ccc23)C1 [Example 15, (R)-1-(3-(2-(1-(2,2-difluoroethyl)-1H-pyrazol-4-ylamino)-7H-pyrrolo[2,3-d]pyrimidin-4-ylamino)piperidin-1-yl)prop-2-en-1-one], which IC50 [1] is on record?
Answer: 0.3 nM

Question: What about the IC50 [2] of the same molecule?
Answer: 7.2 nM

Question: For C=CC(=O)N1CCC[C@@H](Oc2nc(Nc3cnn(C4CC4)c3)nc3[nH]nc(Cl)c23)C1 [Example 153], which IC50 [1] is on record?
Answer: 1.6 nM

Question: And the IC50 [2]?
Answer: 2.2 nM

Question: With C=CC(=O)N1CCC[C@@H](Nc2nc(Nc3cnn(CC(C)C)c3)nc3[nH]nc(C)c23)C1 [Example 186, (R)-1-(3-((6-((1-isobutyl-1H-pyrazol-4-yl)amino)-3-methyl-1H-pyrazolo [3,4-d]pyrimidin-4-yl)amino)piperidin-1-yl)prop-2-en-1-one] as the molecule, how does the IC50 [1] read?
Answer: 18 nM

Question: What about the IC50 [2] of the same molecule?
Answer: 1.6 nM

Question: What does the source list for C=CC(=O)N1CCC[C@@H](Nc2nc(Nc3cnn(C4CC4)c3)nc3[nH]nc(C)c23)C1 [Example 188, (R)-1-(3-((6-((1-cyclopropyl-1H-pyrazol-4-yl)amino)-3-methyl-1H-pyrazolo[3,4-d]pyrimidin-4-yl)amino)piperidin-1-yl)prop-2-en-1-one]?
Answer: IC50 [1]: 23.5 nM; IC50 [2]: 2.9 nM

Question: Which results are given for C=CC(=O)N1CCC[C@@H](Nc2nc(Nc3cnn(C)c3)nc3[nH]nc(Cl)c23)C1 [Example 45, (R)-1-(3-(3-chloro-6-(1-methyl-1H-pyrazol-4-ylamino)-1H-pyrazolo [3,4-d]pyrimidin-4-ylamino)piperidin-1-yl)prop-2-en-1-one]?
Answer: IC50 [1]: 0.7 nM; IC50 [2]: 2.9 nM

Question: With N#CCC(=O)N1CCC[C@@H](Nc2nc(Nc3cnn(C4CC4)c3)nc3[nH]nc(Cl)c23)C1 [Example 139, (R)-3-(3-((3-chloro-6-((1-cyclopropyl-1H-pyrazol-4-yl)amino)-1H-pyrazolo[3,4-d]pyrimidin-4-yl)amino)piperidin-1-yl)-3-oxopropanenitrile] as the molecule, how does the IC50 [1] read?
Answer: > 80 nM

Question: And the IC50 [2]?
Answer: 143 nM

Question: For C=CC(=O)N1CCC[C@@H](Nc2nc(Nc3cnoc3)nc3[nH]cc(Cl)c23)C1 [Example 96, (R)-1-(3-((5-chloro-2-(isoxazol-4-ylamino)-7H-pyrrolo[2,3-d]pyrimidin-4-yl)amino)piperidin-1-yl)prop-2-en-1-one], which IC50 [1] is on record?
Answer: 0.7 nM

Question: And the IC50 [2]?
Answer: 24 nM

Question: CCn1cc(Nc2nc(S[C@@H]3CCCN(C(=O)/C(C#N)=C/C(C)C)C3)c3c(Cl)c[nH]c3n2)cn1 [Example 180, (R,E)-2-(3-((5-chloro-2-((1-ethyl-1H-pyrazol-4-yl)amino)-7H-pyrrolo[2,3-d]pyrimidin-4-yl)thio)piperidine-1-carbonyl)-4-methylpent-2-enenitrile] was tested. Which IC50 [1] did it give?
Answer: 1.5 nM

Question: What about the IC50 [2] of the same molecule?
Answer: 3.1 nM

Question: How did the IC50 [1] turn out when C=CC(=O)N1CC[C@@H](F)[C@@H](Nc2nc(Nc3cnn(CC)c3)nc3[nH]nc(Cl)c23)C1 [Example 193, 1-((3S,4R)-3-((3-chloro-6-((1-ethyl-1H-pyrazol-4-yl)amino)-1H-pyrazolo[3,4-d]pyrimidin-4-yl)amino)-4-fluoropiperidin-1-yl)prop-2-en-1-one] was run?
Answer: 0.5 nM

Question: What about the IC50 [2] of the same molecule?
Answer: 0.9 nM

Question: What does the source list for C=CC(=O)N1CCC[C@@H](Nc2nc(Nc3cnn(C(C)(C)C)c3)nc3[nH]ncc23)C1 [Example 66, (R)-1-(3-((6-((1-(tert-butyl)-1H-pyrazol-4-yl)amino)-1H-pyrazolo [3,4-d]pyrimidin-4-yl)amino)piperidin-1-yl)prop-2-en-1-one]?
Answer: IC50 [1]: 3.7 nM; IC50 [2]: 1.7 nM
